{"source": "patent US6867207B2", "about": "“IL-5 inhibiting 6-azauracil derivatives” (Janssen Pharmaceutica N.V., priority 1997, dated 2005)"}
{"tested_on": "IL-5 production", "assay": "In vitro inhibition of IL-5 production in human blood (phytohemagglutinin-stimulated whole blood, ELISA);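 also: values marked with an asterisk were tested at 10 µM and unmarked values at 1 µM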", "assay_type": "cell-based", "conditions": "test dose 1×10^−6 M, 48 hours", "procedure": "(§1) In Vitro Inhibition of IL-5 Production in Human Blood\n(§2) Human Whole Blood Stimulation\n(§3) Peripheral blood from healthy male donors was drawn into heparinized syringes (12.5 U heparin/ml). Blood samples were three-fold diluted in RMPI 1640 medium (Life Technologies, Belgium) supplemented with 2 mM L-glutamine, 100 U/ml penicillin and 100 μg/ml streptomycin, and 300 μl fractions were distributed in 24-well multidisc plates. Blood samples were preincubated (60 minutes at 37° C.) in a humidified 6% CO2-atmosphere with 100 μl of drug solvent (final concentration 0.02% dimethylsulfoxide in RPMI 1640) or with 100 μl of an appropriate dose of test compound before being stimulated by the addition of 100 μl of phytohemagglutinin HA17 (Murex, UK) at a final concentration of 2 μg/ml. After 48 hours, cell-free supernatant fluids were collected by centrifugation and stored at −70° C. until tested for the presence of IL-5.\n(§4) IL-5 measurements were conducted as described in Van Wauwe et al. (1996, Inflamm Res, 45, 357-363) on page 358 using ELISA.\n(§5) Table 9 lists the percentage inhibition of IL-5 production (column “% inh”) at a test dose of 1×10^−6 M, or in case the percentage inhibition is marked with an “*” 1×10^−5 M, the compounds of the present invention.", "units": {"% inh. (percentage inhibition of IL-5 production)": "%"}}
{"smiles": "Nc1ccc(SC(c2ccc(Cl)cc2)c2ccc(-n3ncc(=O)[nH]c3=O)cc2Cl)cc1", "note": "(racemic) [Compound 59]", "% inh. (percentage inhibition of IL-5 production)": 76}
{"smiles": "COc1cc(-n2ncc(=O)[nH]c2=O)ccc1C(c1ccc(Cl)cc1)c1sc(C)nc1-c1ccccc1", "note": "(racemic) [Compound 153]", "% inh. (percentage inhibition of IL-5 production)": 72}
{"smiles": "Cc1cccc(-c2nc(C(c3ccc(Cl)cc3)c3c(Cl)cc(-n4ncc(=O)[nH]c4=O)cc3Cl)cs2)c1", "note": "(racemic) [Compound 372]", "% inh. (percentage inhibition of IL-5 production)": 86}
{"smiles": "CN1CCC(C(=O)Cc2sc(C(c3ccc(Cl)cc3)c3c(Cl)cc(-n4ncc(=O)[nH]c4=O)cc3Cl)nc2-c2ccccc2)CC1", "note": "(racemic) [Comp 283]", "% inh. (percentage inhibition of IL-5 production)": 93}
{"smiles": "O=c1cnn(-c2cc(Cl)c(C(c3ccc(Cl)cc3)c3nnc(CCc4ccccc4)o3)c(Cl)c2)c(=O)[nH]1", "note": "(racemic) [Compound 172]", "% inh. (percentage inhibition of IL-5 production)": 17}
{"smiles": "O.O=c1cnn(-c2cc(Cl)c(C(c3ccc(Cl)cc3)c3nnc(-c4ccncc4)o3)c(Cl)c2)c(=O)[nH]1", "note": "(racemic) [Compound 158]", "% inh. (percentage inhibition of IL-5 production)": 92}
{"smiles": "O=C(O)Cc1sc(C(c2ccc(Cl)cc2)c2c(Cl)cc(-n3ncc(=O)[nH]c3=O)cc2Cl)nc1-c1ccccc1", "note": "(racemic) [Comp 300]", "% inh. (percentage inhibition of IL-5 production)": 27}
{"smiles": "O=c1cnn(-c2ccc(C(Sc3ncnc4[nH]ncc34)c3ccc(Cl)cc3)c(Cl)c2)c(=O)[nH]1", "note": "(racemic) [Compound 74]", "% inh. (percentage inhibition of IL-5 production)": 69}
{"smiles": "COCc1cc(O)nc(SC(c2ccc(Cl)cc2)c2ccc(-n3ncc(=O)[nH]c3=O)cc2Cl)n1", "note": "(racemic) [Compound 82]", "% inh. (percentage inhibition of IL-5 production)": 19}
{"smiles": "O=c1cnn(-c2cc(Cl)c(C(Sc3nc4ccc([N+](=O)[O-])cc4s3)c3ccc(Cl)c(C(F)(F)F)c3)c(Cl)c2)c(=O)[nH]1", "note": "(centres unmarked) [Compound 388]", "% inh. (percentage inhibition of IL-5 production)": 90}
{"smiles": "O=c1cnn(-c2cc(Cl)c(C(c3ccc(Cl)cc3)c3nc(-c4ccccc4)c(CNS(=O)(=O)Cc4ccccc4)s3)c(Cl)c2)c(=O)[nH]1", "note": "(racemic) [Comp 336]", "% inh. (percentage inhibition of IL-5 production)": 88}
{"smiles": "O=c1cnn(-c2ccc(C(c3ccc(Cl)cc3)c3nnc(-c4ccccc4)o3)c(Cl)c2)c(=O)[nH]1", "note": "(racemic) [Comp 101]", "% inh. (percentage inhibition of IL-5 production)": 66}
{"smiles": "O=c1cnn(-c2cc(Cl)c(C(c3ccc(Cl)cc3)c3ncc(-c4ccccc4)o3)c(Cl)c2)c(=O)[nH]1", "note": "(racemic) [Comp 105]", "% inh. (percentage inhibition of IL-5 production)": 88}
{"smiles": "CCCc1sc(C(c2ccc(Cl)cc2)c2c(Cl)cc(-n3ncc(=O)[nH]c3=O)cc2Cl)nc1-c1ccccc1", "note": "(racemic) [Comp 245]", "% inh. (percentage inhibition of IL-5 production)": 98}
{"smiles": "Cc1nc(C(c2ccc(Cl)cc2)c2c(Cl)cc(-n3ncc(=O)[nH]c3=O)cc2Cl)sc1C", "note": "(racemic) [Comp 16]", "% inh. (percentage inhibition of IL-5 production)": 89}
{"smiles": "O=c1cnn(-c2cc(Cl)c(C(Sc3nc(-c4ccc(F)cc4F)cs3)c3ccc(Cl)c(C(F)(F)F)c3)c(Cl)c2)c(=O)[nH]1", "note": "(centres unmarked) [Compound 397]", "% inh. (percentage inhibition of IL-5 production)": 83}
{"smiles": "Cc1ccccc1-c1csc(C(c2ccc(Cl)cc2)c2c(Cl)cc(-n3ncc(=O)[nH]c3=O)cc2Cl)n1", "note": "(racemic) [Comp 243]", "% inh. (percentage inhibition of IL-5 production)": 97}
{"smiles": "O=c1cnn(-c2cc(Cl)c(C(c3ccc(Cl)cc3)c3cccnc3)c(Cl)c2)c(=O)[nH]1", "note": "(centres unmarked) [Comp 116]", "% inh. (percentage inhibition of IL-5 production)": 74}
{"smiles": "Cc1sc(SC(c2ccc(Cl)c(C(F)(F)F)c2)c2c(Cl)cc(-n3ncc(=O)[nH]c3=O)cc2Cl)nc1-c1ccccc1", "note": "(racemic) [Compound 405]", "% inh. (percentage inhibition of IL-5 production)": 80}
{"smiles": "O=c1cnn(-c2ccc(C(c3ccc(Cl)cc3)c3sc(-c4ccccc4)nc3-c3ccccc3)c(Cl)c2)c(=O)[nH]1", "note": "(racemic) [Compound 140]", "% inh. (percentage inhibition of IL-5 production)": 45}
{"smiles": "O=C(c1sc(C(c2ccc(Cl)cc2)c2c(Cl)cc(-n3ncc(=O)[nH]c3=O)cc2Cl)nc1-c1ccccc1)N1CCOCC1", "note": "(racemic) [Comp 306]", "% inh. (percentage inhibition of IL-5 production)": 92}
{"smiles": "CN(C)c1ccc(-c2nnc(C(c3ccc(Cl)cc3)c3c(Cl)cc(-n4ncc(=O)[nH]c4=O)cc3Cl)o2)cc1", "note": "(racemic) [Compound 180]", "% inh. (percentage inhibition of IL-5 production)": 54}
{"smiles": "Cl.O=c1cnn(-c2cc(Cl)c(C(c3ccc(Cl)cc3)c3nc(C4CCNCC4)cs3)c(Cl)c2)c(=O)[nH]1", "note": "(racemic) [Compound 230, (±)-2-[3,5-dichloro-4-[(4-chlorophenyl)[4-(4-piperidinyl)-2-thiazolyl]methyl]phenyl]-1,2,4-triazin-3,5-(2H,4H)-dione monohydrochloride]", "% inh. (percentage inhibition of IL-5 production)": 79}
{"smiles": "O=c1cnn(-c2cc(Cl)c(C(c3ccc(Cl)cc3)c3cnc(-c4ccccc4)s3)c(Cl)c2)c(=O)[nH]1", "note": "(racemic) [Compound 142]", "% inh. (percentage inhibition of IL-5 production)": 80}
{"smiles": "Cc1cccc(-c2csc(C(c3ccc(Cl)cc3)c3c(Cl)cc(-n4ncc(=O)[nH]c4=O)cc3Cl)n2)c1", "note": "(racemic) [Comp 22]", "% inh. (percentage inhibition of IL-5 production)": 93}
{"smiles": "O=c1cnn(-c2cc(Cl)c(C(c3ccc(Cl)cc3)c3nnc(-c4cccc(F)c4)o3)c(Cl)c2)c(=O)[nH]1", "note": "(racemic) [Compound 160]", "% inh. (percentage inhibition of IL-5 production)": 91}
{"smiles": "CCOC(=O)N1CCC(Nc2ccnc(SC(c3ccc(Cl)cc3)c3c(Cl)cc(-n4ncc(=O)[nH]c4=O)cc3Cl)n2)CC1", "note": "(racemic) [Compound 351]", "% inh. (percentage inhibition of IL-5 production)": 62}
{"smiles": "O=c1cnn(-c2cc(Cl)c(C(c3ccc(Cl)cc3)c3nc(-c4cccc(Cl)c4Cl)cs3)c(Cl)c2)c(=O)[nH]1", "note": "(racemic) [Comp 252]", "% inh. (percentage inhibition of IL-5 production)": 80}
{"smiles": "CN1CCN(c2ccnc(SC(c3ccc(Cl)cc3)c3c(Cl)cc(-n4ncc(=O)[nH]c4=O)cc3Cl)n2)CC1", "note": "(racemic) [Compound 345]", "% inh. (percentage inhibition of IL-5 production)": 88}
{"smiles": "O=c1cnn(-c2cc(Cl)c(C(c3ccc(Cl)cc3)c3nc(-c4ccccc4F)cs3)c(Cl)c2)c(=O)[nH]1", "note": "(racemic) [Comp 242]", "% inh. (percentage inhibition of IL-5 production)": 98}
{"smiles": "Cc1cc(C(C)(c2ccc(Cl)c(C(F)(F)F)c2)c2nc(-c3ccccc3)cs2)c(Cl)cc1-n1ncc(=O)[nH]c1=O", "note": "(racemic) [Comp 235]", "% inh. (percentage inhibition of IL-5 production)": 79}
{"smiles": "CCOC(=O)Cc1sc(C(c2ccc(Cl)cc2)c2c(Cl)cc(-n3ncc(=O)[nH]c3=O)cc2Cl)nc1-c1ccccc1", "note": "(racemic) [Comp 256]", "% inh. (percentage inhibition of IL-5 production)": 94}
{"smiles": "O=c1cnn(-c2cc(Cl)c(C(c3ccc(Cl)cc3)c3csc(-c4ccccc4F)n3)c(Cl)c2)c(=O)[nH]1", "note": "(racemic) [Compound 364]", "% inh. (percentage inhibition of IL-5 production)": 95}
{"smiles": "CC(c1ccc(Cl)c(Cl)c1)(c1nc(-c2ccccc2)c(-c2ccccc2)s1)c1c(Cl)cc(-n2ncc(=O)[nH]c2=O)cc1Cl", "note": "(racemic) [Comp 228]", "% inh. (percentage inhibition of IL-5 production)": 81}
{"smiles": "CCc1sc(C(c2ccc(Cl)cc2)c2c(Cl)cc(-n3ncc(=O)[nH]c3=O)cc2Cl)nc1-c1ccccc1F", "note": "(racemic) [Comp 261]", "% inh. (percentage inhibition of IL-5 production)": 93}
{"smiles": "Nc1ccc(-c2nnc(C(c3ccc(Cl)cc3)c3c(Cl)cc(-n4ncc(=O)[nH]c4=O)cc3Cl)o2)cc1", "note": "(racemic) [Compound 184]", "% inh. (percentage inhibition of IL-5 production)": 83}
{"smiles": "O=c1cnn(-c2cc(Cl)c(C(Sc3cscn3)c3ccc(Cl)c(C(F)(F)F)c3)c(Cl)c2)c(=O)[nH]1", "note": "(centres unmarked) [Compound 387]", "% inh. (percentage inhibition of IL-5 production)": 93}
{"smiles": "CCOC(=O)c1sc(C(c2ccc(Cl)cc2)c2c(Cl)cc(-n3ncc(=O)[nH]c3=O)cc2Cl)nc1-c1ccccc1Cl", "note": "(racemic) [Comp 274]", "% inh. (percentage inhibition of IL-5 production)": 89}
{"smiles": "O=c1cnn(-c2cc(Cl)c(C(Sc3ncccn3)c3ccc(Cl)c(C(F)(F)F)c3)c(Cl)c2)c(=O)[nH]1", "note": "(racemic) [Compound 341]", "% inh. (percentage inhibition of IL-5 production)": 96}
{"tested_on": "IL-5 production", "assay": "In vitro inhibition of IL-5 production in human blood (phytohemagglutinin-stimulated whole blood, ELISA);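 also: values marked with an asterisk were tested at 10 µM and unmarked values at 1 µM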", "assay_type": "cell-based", "conditions": "test dose 1×10^−6 M, 48 hours, read-out: % inh. (percentage inhibition of IL-5 production)", "procedure": "as §1, §2, §3, §4, §5", "units": {"inhibition at 1 µM": "%"}}
{"smiles": "O=c1cnn(-c2cc(Cl)c(C(Sc3[nH]c(=S)[nH]c3-c3ccccc3)c3ccc(Cl)c(C(F)(F)F)c3)c(Cl)c2)c(=O)[nH]1", "note": "(racemic) [Compound 400, (±)-2-[3,5-dichloro-4-[[4-chloro-3-(trifluoromethyl)phenyl][(2,3-dihydro-5-phenyl-2-thioxo-1H-imidazol-4-yl)thio]-methyl]phenyl]-1,2,4-triazine-3,5(2H,4H)-dione]", "inhibition at 1 µM": 76}
{"smiles": "Cc1nc(C(c2ccc(Cl)cc2)c2ccc(-n3ncc(=O)[nH]c3=O)cc2Cl)no1", "note": "(racemic) [Compound 126, (±)-2-[3-chloro-4-[(4-chlorophenyl)(5-methyl-1,2,4-oxadiazol-3-yl)methyl]phenyl]-1,2,4-triazine-3,5(2H,4H)-dione]", "inhibition at 1 µM": 40}
{"smiles": "O=c1cnn(-c2ccc(C(Sc3ncc[nH]3)c3ccc(Cl)cc3)c(Cl)c2)c(=O)[nH]1", "note": "(racemic) [Compound 94, (±)-2-[3-chloro-4-[(4-chlorophenyl)(1H-imidazol-2-ylthio)methyl]phenyl]-1,2,4-triazine-3,5(2H,4H)-dione]", "inhibition at 1 µM": 18}
{"smiles": "O=c1cnn(-c2cc(Cl)c(C(Sc3nnc(-c4ccccc4)o3)c3ccc(Cl)cc3)c(Cl)c2)c(=O)[nH]1", "note": "(racemic) [Compound 406, (±)-2-[3,5-dichloro-4-[(4-chlorophenyl)[(5-phenyl-1,3,4-oxadiazol-2-yl)thio]methyl]phenyl]-1,2,4-triazine-3,5(2H,4H)-dione]", "inhibition at 1 µM": 84}
{"smiles": "CC(C)COC(c1ccc(Cl)cc1)c1ccc(-n2ncc(=O)[nH]c2=O)cc1Cl", "note": "(racemic) [Compound 133, (±)-2-[3-chloro-4-[(4-chloro-phenyl)(2-methylpropoxy)methyl]phenyl]-1,2,4-triazine-3,5(2H,4H)-dione]", "inhibition at 1 µM": 50}
